The values that follow come from patent publication US20020081661A1 (Synaptic Pharmaceutical Corporation, priority 1992, published 2002).

By EC50 is commonly meant the midpoint of the concentration-response curve.

The target in assay [1] is T1, rat 5-HT4 (CG-7) receptor (Rattus norvegicus, UniProt Q62758).
T1 construct: two individual full length cDNA clones, S10-87 and S10-95, were isolated; expressed in transfected cells; host or cells: COS-7 (transient, DEAE-dextran)
Kind of assay: cAMP formation in intact Cos-7 cells transiently expressing CG-7. In kind it is cell-based. The note with it: for agonist / antagonist character: CG-7, cAMP response; for I. A. (intrinsic activity): CG-7, maximum response normalized to 5-HT maximum = 1.0. On the procedure:
(§1) Measurement of cAMP Formation: The transiently transfected Cos-7 cells were incubated in Dulbecco's modified Eagle's medium, 5 mM theophylline, 10 mM Hepes (4-[2-Hydroxyethyl]-1-piperazineethanesulfonic acid), 10 μM pargyline, and/or appropriate concentrations of antagonists for 20 minutes at 37° C., 5% CO2. […] The media was aspirated and the reaction stopped by the addition of 100 mM HCl. The plates were stored at 4° C. for 15 minutes, centrifuged for 5 minutes, 500×g to pellet cellular debris, and the supernatant aliquotted and stored at −20° C. prior to assessment of cAMP formation by radioimmunoassay (cAMP Radioimmunoassay kit, Advanced Magnetics, Cambridge, Mass.). Radioactivity was quantitated using a Packard COBRA Auto Gamma Counter equipped with data reduction software. Functional data was fitted to a four parameter logistic equation to obtain response parameters (EC50, Emax, nH; Inplot, GraphPad, San Diego, Calif.).
On the technique in general: Cyclic AMP is a second messenger, typically raised through Gs and lowered through Gi signalling.

The target of assay [2] is T2, rat 5-HT4 (CG-8) receptor (Rattus norvegicus, UniProt Q62758).
T2 construct: two individual full length cDNA clones, S10-87 and S10-95, were isolated; expressed in transfected cells; host or cells: COS-7 (transient, DEAE-dextran)
In words: cAMP formation in intact Cos-7 cells transiently expressing CG-8. In kind it is cell-based. The note with it: for agonist / antagonist character: CG-8, cAMP response; for I. A. (intrinsic activity): CG-8, maximum response normalized to 5-HT maximum = 1.0. On the procedure: as §1

Assay [3] addresses T3, rat 5-HT4 receptor S10-95 (CG-8) (Rattus norvegicus, UniProt Q62758). Kind of assay: biochemical.
Procedure: (§2) For transient expression, Cos-7 cells were transfected by the DEAE-Dextran method, using 1 μg of DNA /10^6 cells (Warden, D. and H. V. Thorne, 1968).
(§3) Membrane Preparation: Membranes were prepared from transiently transfected COS-7 cells which were grown to 100% confluence. The cells were washed twice with phosphate-buffered saline, scraped from the culture dishes into 5 ml of ice-cold phosphate-buffered saline, and centrifuged at 200×g for 5 min at 4′. The pellet was resuspended in 2.5 ml of ice-cold Tris buffer (20 mM Tris -HCl, pH 7.4 at 23°, 5 mM EDTA), and homogenized by a Wheaton tissue grinder. The lysate was subsequently centrifuged at 200×g for 5 min at 4° to pellet large fragments which were discarded. The supernatant was collected and centrifuged at 40,000×g for 20 min at 4°. The pellet resulting from this centrifugation was washed once in ice-cold Tris wash buffer and finally resuspended in a final buffer containing 50 mM Tris-HCl and 0.5 mM EDTA, pH 7.4 at 23°. Membrane preparations were kept on ice and utilized within two hr for the radioligand binding assays. Protein concentrations were determined by the method of Bradford (1976) using bovine serum albumin as the standard.
(§4) The binding profile of drugs in competition experiments was established using 7 concentrations of compound. Incubation times were 30 min for both saturation and displacement studies. […] Binding was initiated by the addition of 50 μl membrane homogenates (10-20 μg). The reaction was terminated by rapid filtration through presoaked (0.5% polyethyleneimine) filters using 48R Cell Brandel Harvester (Gaithersburg, Md.). Subsequently, filters were washed for 5 sec with ice cold buffer (50 mM Tris HCL, pH 7.4 at 4° C.), dried and placed into vials containing 2.5 ml of Readi-Safe (Beckman, Fullerton, Calif.), and radioactivity was measured using a Beckman LS 6500C liquid scintillation counter. […] Binding data were analyzed by computer-assisted nonlinear regression analysis (Accufit and Accucomp, Lundon Software, Chagrin Falls, Ohio). […]
Assay [4] has as its target T4, rat 5-HT4 receptor S10-87 (CG-7) (Rattus norvegicus, UniProt Q62758). Kind of assay: [3H]5-HT radioligand binding (saturation and displacement), membranes of Cos-7 cells transiently expressing rat S10-87 (CG-7).
Procedure: (§5) Membrane Preparation: Membranes were prepared from transiently transfected COS-7 cells which were grown to 100% confluence. The cells were washed twice with phosphate-buffered saline, scraped from the culture dishes into 5 ml of ice-cold phosphate-buffered saline, and centrifuged at 200×g for 5 min at 4′. The pellet was resuspended in 2.5 ml of ice-cold Tris buffer (20 mM Tris -HCl, pH 7.4 at 23°, 5 mM EDTA), and homogenized by a Wheaton tissue grinder. The lysate was subsequently centrifuged at 200×g for 5 min at 4° to pellet large fragments which were discarded. The supernatant was collected and centrifuged at 40,000×g for 20 min at 4°. The pellet resulting from this centrifugation was washed once in ice-cold Tris wash buffer and finally resuspended in a final buffer containing 50 mM Tris-HCl and 0.5 mM EDTA, pH 7.4 at 23°. Membrane preparations were kept on ice and utilized within two hr for the radioligand binding assays.
(§6) The binding profile of drugs in competition experiments was established using 7 concentrations of compound. Incubation times were 30 min for both saturation and displacement studies. […] Binding was initiated by the addition of 50 μl membrane homogenates (10-20 μg). The reaction was terminated by rapid filtration through presoaked (0.5% polyethyleneimine) filters using 48R Cell Brandel Harvester (Gaithersburg, Md.). Subsequently, filters were washed for 5 sec with ice cold buffer (50 mM Tris HCL, pH 7.4 at 4° C.), dried and placed into vials containing 2.5 ml of Readi-Safe (Beckman, Fullerton, Calif.), and radioactivity was measured using a Beckman LS 6500C liquid scintillation counter. […] Binding data were analyzed by computer-assisted nonlinear regression analysis (Accufit and Accucomp, Lundon Software, Chagrin Falls, Ohio).
The target of assay [5] is T3, rat 5-HT4 receptor S10-95 (CG-8). Kind of assay: [3H]GR113808 binding (saturation and displacement), COS-7 membranes, rat clone CG-8. Also noted: two individual full length cDNA clones, S10-87 and S10-95, were isolated; expressed in transfected cells; host or cells: COS-7 (transient, DEAE-dextran). The note with it: for Ki: CG-8, 0.2-0.4 nM [3H]GR113808, single experiment, read-out: Affinity estimate K1.
Procedure: as §5
(§7) The binding profile of drugs in competition experiments was established using 10-12 concentrations of compound. Incubation times were 30 min for both saturation and displacement studies.

For assay [6], the target named is T5, human 5-HT4 receptor S10-95 (CG-17) (Homo sapiens, UniProt Q13639).
T5 construct: Isolation of the full length human S10-95 cDNA clone; expressed in transfected cells; host or cells: COS-7 (transient, DEAE-dextran)
In words: [3H]5-HT displacement binding, human CG-17 clone.
Procedure: as §5, §6

Assay [7] concerns the target T3, rat 5-HT4 receptor S10-95 (CG-8).
Procedure: as §2, §3, §4
Assay [8] shares this target. Kind of assay: [3H]5-HT radioligand binding (displacement), membranes of Cos-7 cells transiently expressing rat S10-95 (CG-8). The note with it: read-out: K1; CG-8, binding data using [3H]5-HT, Table 4.
Procedure: as §2, §3, §4
Assay [9] has as its target T4, rat 5-HT4 receptor S10-87 (CG-7). Kind of assay: [3H]GR113808 binding (saturation and displacement), COS-7 membranes, rat clone CG-7. On the set-up: two individual full length cDNA clones, S10-87 and S10-95, were isolated; expressed in transfected cells; host or cells: COS-7 (transient, DEAE-dextran).
Procedure: as §5, §7
Where [10] appears, read: read-out: Ks (apparent dissociation constant of antagonist).
Where [11] appears, read: K1 (nM), CG-7, binding data using [3H]5-HT, Table 4.

Read-outs that look alike come from different tables or passages of the source.

T3 sequence (Q62758 whole entry): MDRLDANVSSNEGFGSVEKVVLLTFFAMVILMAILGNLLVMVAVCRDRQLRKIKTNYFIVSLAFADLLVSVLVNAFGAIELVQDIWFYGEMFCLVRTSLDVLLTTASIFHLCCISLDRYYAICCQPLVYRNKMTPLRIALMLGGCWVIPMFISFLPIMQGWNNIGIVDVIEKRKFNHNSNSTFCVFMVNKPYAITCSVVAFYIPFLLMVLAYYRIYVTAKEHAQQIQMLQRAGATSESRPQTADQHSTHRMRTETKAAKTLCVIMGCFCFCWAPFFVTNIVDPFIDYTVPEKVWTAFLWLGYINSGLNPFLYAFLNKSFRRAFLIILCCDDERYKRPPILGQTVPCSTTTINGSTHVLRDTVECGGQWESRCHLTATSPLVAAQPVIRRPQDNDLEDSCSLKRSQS
T2 sequence (Q62758 whole entry): as above
T4 sequence (Q62758 1-387 isoform Q62758-2): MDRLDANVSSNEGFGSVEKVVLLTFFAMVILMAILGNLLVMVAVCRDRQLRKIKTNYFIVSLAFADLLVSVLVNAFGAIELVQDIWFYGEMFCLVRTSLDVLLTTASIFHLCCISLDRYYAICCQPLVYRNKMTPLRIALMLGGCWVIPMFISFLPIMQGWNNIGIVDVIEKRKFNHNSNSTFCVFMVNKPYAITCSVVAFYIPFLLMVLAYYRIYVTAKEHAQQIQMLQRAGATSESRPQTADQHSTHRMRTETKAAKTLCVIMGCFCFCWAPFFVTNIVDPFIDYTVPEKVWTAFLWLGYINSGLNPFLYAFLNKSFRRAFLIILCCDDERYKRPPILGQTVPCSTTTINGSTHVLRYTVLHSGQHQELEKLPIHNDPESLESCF
T1 sequence (Q62758 1-387 isoform Q62758-2): as above
T5 sequence (Q13639 whole entry): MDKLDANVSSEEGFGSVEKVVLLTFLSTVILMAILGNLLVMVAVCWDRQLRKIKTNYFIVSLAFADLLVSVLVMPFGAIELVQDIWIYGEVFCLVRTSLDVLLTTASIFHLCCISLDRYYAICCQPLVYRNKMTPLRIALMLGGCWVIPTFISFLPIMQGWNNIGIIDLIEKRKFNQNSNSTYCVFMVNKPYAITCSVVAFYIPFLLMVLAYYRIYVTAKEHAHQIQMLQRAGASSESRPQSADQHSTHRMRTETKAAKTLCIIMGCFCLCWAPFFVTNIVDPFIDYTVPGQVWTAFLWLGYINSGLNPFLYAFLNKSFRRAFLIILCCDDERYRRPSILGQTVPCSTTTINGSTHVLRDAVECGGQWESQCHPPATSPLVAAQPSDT

Take `CN1[C@@H]2CC[C@H]1C[C@@H](OC(=O)c1c[nH]c3ccccc13)C2` [ICS 205930]: the results for the “fold lower affinity in the functional assay as compared to the binding experiments” value in assay [1] (CG-7) and in [2] (CG-8) were approximately 10 fold and “approximately 6 fold”, respectively. For the same molecule, the “agonist / antagonist character” value in [1] and in [2] was “silent antagonist” in each case. For the same molecule, the “I. A. (intrinsic activity)” value in assay [1] and in [2] was 0 throughout. For the same molecule, the values for the Kd in [1] (setting [10]) and in [2] (setting [10]) were 962 ± 244 nM and 607 ± 30 nM, respectively. Besides, the Ki in [3] is 138 ± 26 nM; in [4] (Affinity constants (Ki), CG-7, 10 nM [3H]5-HT, mean ± SEM, >1000 estimated from one point displacement at 1 uM), 115 ± 12 nM; in assay [4] (setting [11]), 115 ± 12 nM; in assay [5], 529 nM.
In the case of `COc1cc(N)c(Cl)cc1C(=O)NC1CN2CCC1CC2` (stereo not drawn) [Zacopride, zacopride], the “fold higher affinity for the human CG-17 clone” value in assay [6] (human CG-17 compared with rat clones) is recorded as “about 7 fold”. Besides, the Ki was 17 nM in [6] (read-out: Ki); 136 ± 5 nM in assay [7]; 136 ± 5 nM in [8]; 130 ± 10 nM in assay [4]; 130 ± 10 nM in assay [4] (setting [11]); 729 nM in assay [9] (CG-7, 0.2-0.4 nM [3H]GR113808, single experiment, read-out: Affinity estimate K1). In addition, the Ki in assay [9] (CG-7, [3H]GR113808, read-out: KH (affinity for the high affinity state)) is 424 nM; in assay [9] (CG-7, [3H]GR113808, read-out: KL (affinity for the low affinity state)), 2760 nM; in assay [5], 820 nM. Moreover, the “agonist / antagonist character” value in [1] and in assay [2] was “partial agonists” throughout. The “I. A. (intrinsic activity)” value in assay [1] stood at 1.1; in assay [2], 1.0. Moreover, in assay [1] (CG-7, stimulation of adenylate cyclase), the “fold lower affinity than cisapride” value is reported as approximately 15 fold. For the same molecule, the “times less potent than 5-HT” value in assay [1] (CG-7, stimulation of basal cAMP release) is on record as approximately 100 fold. Besides, the EC50 in assay [1] (CG-7, stimulation of basal cAMP release, means ± S.E.M. of three experiments, read-out: EC50) came to 2740 nM; in assay [2] (CG-8, stimulation of basal cAMP release, means ± S.E.M. of three experiments, read-out: EC50), 239 ± 33 nM. Moreover, in assay [9] (CG-7, [3H]GR113808), the “BH (percentage of high affinity sites)” value turned out to be 68%. The “nH (Hill coefficient)” value in assay [9] (CG-7, [3H]GR113808) is reported as “nH = 0.80”; in assay [5] (CG-8, [3H]GR113808), “nH = 0.85”.
